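Interpolation was linear, between the two tested concentrations surrounding the appropriate level; five concentrations were tested over 48 hours in 96-well plates. GI50 marks 50% less growth.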 Calls of active or inactive are those of the source. Cut-off read from the data, not from the text of the source: active = GI50 up to about 1.1 µM and inactive = higher.
Assays:
Assay in all cases: NCI anticancer screen, dose series, 48 h
A498 = system: A498
UACC-257 = system: UACC-257
ACHN = system: ACHN
IGROV-1 = system: IGROV-1
XF498 = system: XF498
Malme-3M = system: Malme-3M
RXF 393 = system: RXF 393
SK-MEL-5 = system: SK-MEL-5
MOLT-4 = system: MOLT-4
NCI-H460 = system: NCI-H460
SNB-19 = system: SNB-19
NCI-H522 = system: NCI-H522
M14 = system: M14
HCT-15 = system: HCT-15
786-0 = system: 786-0

SMILES	GI50 (A498)	GI50 (UACC-257)	GI50 (ACHN)	GI50 (IGROV-1)	GI50 (XF498)	GI50 (Malme-3M)	GI50 (RXF 393)	GI50 (SK-MEL-5)	GI50 (MOLT-4)	GI50 (NCI-H460)	GI50 (SNB-19)	GI50 (NCI-H522)	GI50 (M14)	GI50 (HCT-15) [µM]	GI50 (786-0)
CC1CCP(=O)(c2ccccc2)c2ccccc21 (stereo not given)	> 100 µM (inactive)	65.9 µM (inactive)	42.5 µM (inactive)	> 100 µM (inactive)	< 0.01 µM (active)	> 100 µM (inactive)	> 100 µM (inactive)	49.5 µM (inactive)	30.8 µM (inactive)	40.8 µM (inactive)	> 100 µM (inactive)	43.6 µM (inactive)	> 100 µM (inactive)	38.1	> 100 µM (inactive)
CCC12C=CCN3CC[C@]4(C(=C(C(=O)OC)[C@@H]1Nc1ccn(C5OC(COC(C)=O)C(OC(C)=O)C5OC(C)=O)c(=O)n1)Nc1ccccc14)C32 (stereo not given in full)	5.19 µM (inactive)	1.26 µM (inactive)	4.43 µM (inactive)	5.25 µM (inactive)	5.74 µM (inactive)	4.78 µM (inactive)	3.12 µM (inactive)	4.5 µM (inactive)	6.58 µM (inactive)	4.45 µM (inactive)	4.73 µM (inactive)	3.84 µM (inactive)	4.18 µM (inactive)	3.54	4.54 µM (inactive)

From ChEMBL document CHEMBL1201862, “PubChem BioAssay data set” (2004)
